Legend:
Type in all cases: cell-based, human
[1] = test system: H157 (non-small cell lung carcinoma) cells; test: Polyamine levels in H157 cells following treatment; conditions: for Polyamine Level, Spm: spermine (Spm)
Protocol: (§1) Putrescine, spermidine, and spermine polyamine levels in H157 and H82 cells following exposure to select compounds were performed. Polyamine levels were determined using the precolumn dansylation labeling, reverse-phase high-pressure liquid chromatography method as described by Kabra et al., J. Chromotography, 380:19 (1986). The results are show in Tables 6 and 11 for H157 and H82 cells respectively. The compound identifier, treatment concentration, observed polyamine level, and exposure time are listed in columns 1, 2, 3, and 4 respectively. Polyamine levels are reported as increased (inc), decrease (dec), or no change (N/C). In some case the specific levels of putrescine, spermidine, and/or spermine are listed.

H82 cells = test: Polyamine levels in H82 cells following treatment; conditions: 24 hr
Protocol: as §1

[2] = test system: H157 (non-small cell lung carcinoma) cells; test: 96 hr MTS dose response experiment in H157 cells; conditions: a range means IC50 lies between the two tested concentrations
Protocol: MTS dose response experiments in H157, H82, and A549 cells following a 96 hr exposure with select compounds were performed. MTS is a standard colorimetric assay used for measuring metabolic activity in cells. MTS experiments were performed by CellTiter 96® AQueuos One Solution Cell Proliferation Assay from Promega Corporation. Briefly, the cells were seeded at 3000 cells/well on a 96 well tissue culture plate containing 100 ul of medium/well and allowed to attach overnight. The medium was then aspirated and replaced with 100 ul of fresh medium containing the appropriate concentration of the compound being tested and incubated for 96 hrs at 37° C. and 5% CO2. Compounds are routinely tested at concentrations ranging from 0.1 micromolar to 50 micromolar. Wells not containing the test compound were present and used as a control. Following treatment, 20 ul of MTS reagent was added to each well and incubated at 37° C. for 1.5 hrs. The absorbance of each well was then measured at 490 nm and used to determine the metabolic activity of the cells in the presence of the test compound, relative to the control. IC50 values for the test compounds were extracted based on the results.
Note that the results for a 72 hr exposure in addition to the 96 hr exposure are shown for compound 49-TDW-29C in the H157 cells. […] FIG. 1 depicts the results of a 96 hr MTS dose response experiments for compound 46-TDW-23c in H157, A549, H82 and Beas2B cells. FIG. 2 depicts the results of a 96 hr MTS dose response experiments for compound 49-TDW-9 in H157, A549, H82 and Beas2B cells. FIG. 3 depicts the results of a 96 hr MTS dose response experiments for compound 42-TDW-21c in H157, A549, H82 and Beas2B cells. FIG. 4 depicts the results of a 96 hr MTS dose response experiments for compound 46-TDW-19c in H157, A549, H82 and Beas2B cells. FIG. 5 depicts the results of a 96 hr MTS dose response experiments for compound 49-TDW-17c in H157, A549, H82 and Beas2B cells. FIG. 6 depicts the results of a 96 hr MTS dose response experiments for compound 40-TDW-37 in H157, A549, H82 and Beas2B cells. FIG. 7 depicts the results of a 96 hr MTS dose response experiments for compound 42-TDW-4 in H157, A549, H82 and Beas2B cells. FIG. 8 depicts the results of a 96 hr MTS dose response experiments for compound 49-TDW-29c in H157, A549, H82 and Beas2B cells. FIG. 9 depicts the results of a 96 hr MTS dose response experiments for compound 49-TDW-32c in H157, A549, H82 and Beas2B cells. FIG. 10 depicts the results of a 96 hr MTS dose response experiments for compound 46-TDW-35c in H157, A549, H82 and Beas2B cells. FIG. 11 depicts the results of a 96 hr MTS dose response experiments for compound 39-TDW-3 in H157, A549, and H82 cells. FIG. 12 depicts the results of a 96 hr MTS dose response experiments for compound 39-TDW-12c in […], and A549 cells. FIG. 13 depicts the results of a 96 hr MTS dose response experiments for compound 39-TDW-20c in H157, and H82 cells. FIG. 14 depicts the results of a 96 hr MTS dose response experiments for compounds 39-TDw-47c and 39-TDW-43 in H157 cells. FIG. 15 depicts the results of a 96 hr MTS dose response experiments for compounds 42-TDW-9, 42-TDW-4c/6, 40-TDW-35, 42-TDW-38 and BENSpm in H157 cells. FIG. 16 depicts the results of a 96 hr MTS dose response experiments for compounds 46-TDW-34c, 42-TDW-12, 40-TDW-48, 46-TDW-44c and BENSpm in H157 cells. FIG. 17 depicts the results of a 96 hr MTS dose response experiments for compounds 42-TDW-20c, 46-TDW-22, 46-TDW-39, 49-TDW-29c and BENSpm in H157 cells. FIG. 18 depicts the results of a 96 hr MTS dose response experiments for compounds 39-TDW-43, 42-TDW-48c, 46-TDW-9, 46-TDW-23c and BENSpm in H157 cells. FIG. 19 depicts the results of a 96 hr MTS dose response experiments for compounds 42-TDW-35c, 46-TDW-44 and BENSpm in H157 cells.

[3] = 10 uM, 24 hr, inc = increased, dec = decrease, N/C = no change
[4] = Homo sapiens, NCI-H157, 96 hr exposure

| Compound | IC50 [2, 4] | also measured |
| --- | --- | --- |
| CCCCNCCCNCCCNCCCNCC [ZQW-19] | – | Polyamine Level ([1]; 1 uM, 24 hr): N/C; Polyamine Level [1, 3]: dec ~50%; Polyamine Level (H82 cells; 0-10 uM): slow dec; Polyamine Level (H82 cells; 10 uM): dec ~50% |
| O=C(CCc1nc2ccccc2[nH]1)NCCCNCCCNCCCNC(=O)CCc1nc2ccccc2[nH]1 [44-DHEJ-38] | 21.9 µM | – |
| N=C(NCCCNCCCCNCCCNC(=N)NCCC(c1ccccc1)c1ccccc1)NCCC(c1ccccc1)c1ccccc1 [XBI-54-8B] | > 50 µM | – |
| N=C(NCCCNCCCCNCCCNC(=N)NCC(c1ccccc1)c1ccccc1)NCC(c1ccccc1)c1ccccc1 [XBI-54-9B] | > 50 µM | – |
| CCC(CC)CNCCCNCCCNCCCNCC(CC)CC [40-TDW-28] | – | IC50 ([2]; 96 hr exposure): 10 to 50 µM |
| NC1CCC(NCCCNCC2CC2)C1 (centres unmarked) [UNS-31-21c] | – | Polyamine Level [1, 3]: dec; Polyamine Level, Spm ([1]; 10 uM, 24 hr): same; Polyamine Level (H82 cells; 10 uM): slight inc |
| CCNCCCNCCCNCCCNC(C)C [DG-52-28] | 1 µM | – |
| CCCCNCCCNCCCNCCCNCCCC [ZQW-14c] | – | Polyamine Level [1, 3]: slowly dec; Polyamine Level (H82 cells; 10 uM): slowly dec |
| CC(N)CCNCCCNCc1ccc(-c2ccccc2)cc1 (centres unmarked) [55-DHEJ-26] | > 50 µM | – |
| CCNCCCNCCCCCNCCCN [44-DHEJ-49] | 1 to 5 µM | – |
| CCNCCCN(CCCNCC)CCCNCC [55-DHEJ-31C] | > 50 µM | – |
| CCNCCCNCCCCCNCCCNCC [44-DHEJ-48C] | > 50 µM | – |
| Cc1c(CNCCCNCCCNCCCNCc2cccc(-c3ccccc3)c2C)cccc1-c1ccccc1 [40-TDW-48] | – | IC50 ([2]; 96 hr exposure): 1 to 5 µM |
| CC(CCNCCCCCCCNCCC(C)NCC(F)(F)F)NCC(F)(F)F (centres unmarked) [51-DHEJ-18] | 10 to 50 µM | – |
| C1CCCC(CNCCCNCCCNCCCNCC2CC2)CC1 [CPCHENSpm] | – | Polyamine Level [1, 3]: slight dec; Polyamine Level, Spm ([1]; 10 uM, 24 hr): inc; Polyamine Level (H82 cells; 10 uM): slight inc, and N/C |
| N=C(NCCCNCCCNCCCNC(=N)NC(=N)NCCC(c1ccccc1)c1ccccc1)NC(=N)NCCC(c1ccccc1)c1ccccc1 [XBI-54-12D] | 10 to 50 µM | – |
| C1CCC(CNCCCNCC2CCCC(CNCCCNCC3CCCCC3)C2)CC1 (centres unmarked) [UNS-31-7A] | – | Polyamine Level [1, 3]: slight dec; Polyamine Level (H82 cells; 10 uM): slight dec |
| CC(C)=CCNCCCNCCCNCCCNCC=C(C)C [SV-53-18C2] | – | IC50 ([2]; 96 hr exposure): 10 to 50 µM |
| NCCCCCNCCCNCCCNCCCCCN [YZ33041] | > 10 µM | – |
| O=C(NCCCNCCCNCCCNC(=O)c1nc2ccccc2[nH]1)c1nc2ccccc2[nH]1 [44-DHEJ-40C] | > 26.1 µM | – |

| Compound | IC50 [2, 4] | also measured |
| --- | --- | --- |
| NCCCCCCNCCCCCCNCCCc1nc2ccccc2[nH]1 [50-DHEJ-3C] | > 50 µM | – |
| CCNCCCNCCCCNCCC(c1ccccc1)c1ccccc1 [42-TDW-40c] | 5 to 10 µM | – |
| C/N=C(\NC)NCCCNCCCNCCCN/C(=N/C)NC [B182] | 5 to 10 µM | – |
| N=C(NCCCNCCCNCCCNC(=N)Nc1ccccc1)Nc1ccccc1 [B188-2] | 5 to 10 µM | – |
| N=C(NCCCNCCCCNCCCNC(=N)NC(=N)NCC(c1ccccc1)c1ccccc1)NC(=N)NCC(c1ccccc1)c1ccccc1 [XBI-54-14B] | 10 to 50 µM | – |
| CCNCCCCCNCCCNCCCNCC [51-DHEJ-B] | > 50 µM | – |
| CCNCCCN(CCCN)CCCCCCCNCCCNCC1CCCCCC1 [ZQW-27-11C] | – | Polyamine Level ([1]; 10 uM, 96 hr): N/C; Polyamine Level (H82 cells; 10 uM): dec ~50% |
| CCNCCCNCCCNCCCCCN [51-DHEJ-C] | > 50 µM | – |
| CCCCNCCCNCCCNCCCN [ZQW-16c] | – | Polyamine Level [1, 3]: slowly inc; Polyamine Level (H82 cells; 0-10 uM): slight inc; Polyamine Level (H82 cells; 10 uM): dec ~50% |
| CCNCCCNCCCNCCCCNCC1CC1 [YZ33049] | ~1 µM | – |
| COc1cc(C(C)(C)C)c(C(C)(C)C)cc1CNC(C)CCNCCCNCCC(C)NCc1cc(C(C)(C)C)c(C(C)(C)C)cc1OC (centres unmarked) [51-DHEJ-8] | > 50 µM | – |
| C#CC(=O)NCCCNCCCNCCCNC(=O)C#C [44-DHEJ-41] | – | IC50 ([2]; 96 hr exposure): 7.16 to 35.8 µM |
| N=C(NCCCNCCCCCCCNCCCNC(=N)NC(=N)NCCC(c1ccccc1)c1ccccc1)NC(=N)NCCC(c1ccccc1)c1ccccc1 [XBI-54-13B] | 10 to 50 µM | – |
| NCCCCCNCCCNCCCNCCCCN [YZ33035] | > 10 µM | – |
| N=C(NCCCNCCCCCCCNCCCNC(=N)NC(=N)NCC(c1ccccc1)c1ccccc1)NC(=N)NCC(c1ccccc1)c1ccccc1 [XBI-54-11C] | 10 to 50 µM | – |
| CCCCNC(C)CCNCCCCCCCNCCC(C)NCC (centres unmarked) [51-DHEJ-49C] | > 50 µM | – |
| Fc1cc(F)c(CNCCCNCCCNCCCNCc2cc(F)c(F)cc2F)cc1F [44-DHEJ-10C] | > 29 µM | – |
| CCNCCCNCCCCC(C)NCCCNCC (centres unmarked) [55-DHEJ-24C] | > 50 µM | – |
| CC(CCNCCCNCCC(C)NCC1CC1)NCC1CC1 (centres unmarked) [55-DHEJ-35C] | 10 to 50 µM | – |
| N=C(NCCCNCCCCNCCCNC(=N)NC(=N)NCCC(c1ccccc1)c1ccccc1)NC(=N)NCCC(c1ccccc1)c1ccccc1 [XBI-54-13D] | 10 to 50 µM | – |

| Compound | IC50 [2, 4] | also measured |
| --- | --- | --- |
| CCNCCCNCCCCCNCCCNCC(C)CC (centres unmarked) [51-DHEJ-A] | 10 to 50 µM | – |
| N=C(NCCCNCCCCCCCNCCCNC(=N)Nc1ccccc1)Nc1ccccc1 [B205′-1] | 50 µM | – |
| CCNCCCNCCCNCCC(C)N (centres unmarked) [55-DHEJ-7C] | > 50 µM | – |
| CNC(=N)NCCCNCCCCCCCNCCCNC(=N)NC [B181] | 5 to 10 µM | – |
| CC(C)CNCCCNCCCNCCCNCC(C)C [DG-52-29C] | > 50 µM | – |
| CC(CCNCCCNCCC(C)NCc1cc(F)c(F)cc1F)NCc1cc(F)c(F)cc1F (centres unmarked) [44-DHEJ-5C] | > 31 µM | – |
| CCNCCCNCCCNCCCNCC [BENSpm, reference compound] | – | Polyamine Level [1, 3]: N/C |
| N=C(NCCCNCCCNCCCNC(=N)NC(=N)NCC(c1ccccc1)c1ccccc1)NC(=N)NCC(c1ccccc1)c1ccccc1 [XBI-54-12C] | 10 to 50 µM | – |
| CCNCCCNCCCNCCC(C)NCC1CC1 (centres unmarked) [55-DHEJ-37C] | > 50 µM | – |
| CCC(CC)CNCCCCNCCCNCC(CC)CC [46-TDW-12] | > 50 µM | – |
| CCCCNCCCCNCCCCNCCCNCC [YZ33049c] | 1 to 10 µM | – |
| CCNCCCCNCCCNCCCNCC [YZ33050c] | ~1 µM | – |
| c1ccc(-c2ccccc2CNCCCCNCCCNCc2ccccc2-c2ccccc2)cc1 [42-TDW-35c] | – | IC50 ([2]; 96 hr exposure): 1 to 5 µM |
| c1cc2ccc3cccc4c(CCCCNCCCNCCCNCCCNCCCCc5cc6cccc7ccc8cccc5c8c76)cc(c1)c2c34 [40-TDW-26c] | 10 to 50 µM | – |
| CCNCCCNCCCNCCCNC(C)CC (centres unmarked) [DG-52-27C] | 0.5 to 1 µM | – |
| CNC(=N)NCCCNCCCNCCCNC(=N)NC [B179-1] | 10 to 50 µM | – |
| CCNCCCN(CCCN)CCCCCCCNCCCN [ZQW-27-9] | – | Polyamine Level [1, 3]: N/C; Polyamine Level (H82 cells; 10 uM): dec |
| CCNCCCNCCCNCCCCN [YZ33046] | > 10 µM | – |

From patent publication US8148577B2, “Polyamines useful as anti-parasitic and anti-cancer therapeutics and as lysine-specific demethylase inhibitors” (The Johns Hopkins University, priority 2005, dated 2012)
